In patent publication US9656963B2 (BRISTOL-MYERS SQUIBB COMPANY, priority 2012, dated 2017):

Biological target: T1, hGPR40 (Homo sapiens, UniProt O14842)
T1 construct: 3x FLAG; expressed in transfected cells
Experiment: FDSS-Based Intracellular Calcium Assay
Assay type: cell-based
Conditions: cells expressing GPR40, intracellular Ca2+ response
Summary of the method: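 Flag-tagged GPR40-expressing cells plated overnight in serum-free, phenol red-free DMEM. Compounds added from DMSO stocks, diluted in assay buffer and added as 3x solution. Intracellular Ca^2+ flux read by fluorescence on an FDSS reader.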

T1 sequence (O14842 whole entry): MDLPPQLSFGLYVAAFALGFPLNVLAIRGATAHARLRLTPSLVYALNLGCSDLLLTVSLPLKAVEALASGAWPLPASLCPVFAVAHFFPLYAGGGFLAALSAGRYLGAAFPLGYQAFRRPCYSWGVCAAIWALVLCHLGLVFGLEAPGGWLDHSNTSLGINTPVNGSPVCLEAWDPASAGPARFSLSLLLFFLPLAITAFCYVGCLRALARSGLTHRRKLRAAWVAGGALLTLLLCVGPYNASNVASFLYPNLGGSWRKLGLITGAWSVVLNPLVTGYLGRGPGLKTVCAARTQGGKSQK

| EC50 | SMILES |
| --- | --- |
| 270 nM | COc1ccc(F)c(-c2cc(C)c(Cc3ccc(N4N=C(C(F)(F)F)CC4CC(=O)O)cc3)c(F)c2)c1 (single isomer, unassigned) [Example 21, Isomer 2, 2-(1-(4-((2′,3-difluoro-5′-methoxy-5-methylbiphenyl-4-yl)methyl)phenyl)-3-(trifluoromethyl)-4,5-dihydro-1H-pyrazol-5-yl)acetic acid] |
| 20 nM | CCC1C(C(F)(F)F)=NN(c2ccc(Cc3ccc(-c4cc(OC)ccc4F)cc3C)cc2)C1CC(=O)O (single isomer, unassigned) [Example 44, Isomer 2, 2-(4-ethyl-1-(4-((2′-fluoro-5′-methoxy-3-methylbiphenyl-4-yl)methyl)phenyl)-3-(trifluoromethyl)-4,5-dihydro-1H-pyrazol-5-yl)acetic acid] |
| 70 nM | Cc1ccccc1Oc1ccc(N2N=C(C(F)(F)F)CC2CC(=O)O)cc1 (single isomer, unassigned) [Example 11, Isomer 1, 2-(1-(4-(o-tolyloxy)phenyl)-3-(trifluoromethyl)-4,5-dihydro-1H-pyrazol-5-yl)acetic acid] |
| 160 nM | COc1ccc(F)c(-c2ccc(Oc3ccc(N4N=C(C(F)(F)F)CC4CC(=O)O)cc3)c(C)c2)c1 (single isomer, unassigned) [Example 14, Isomer 2, 2-(1-(4-(2′-fluoro-5′-methoxy-3-methylbiphenyl-4-yloxy)phenyl)-3-(trifluoromethyl)-4,5-dihydro-1H-pyrazol-5-yl)acetic acid] |
| 1490 nM | COc1ccc(F)c(-c2ccc(Cc3ccc(N4N=C(C(F)(F)F)CC4(C)CC(=O)O)cc3)c(C)c2)c1 (single isomer, unassigned) [Example 51, Isomer 2, 2-(1-(4-((2′-fluoro-5′-methoxy-3-methylbiphenyl-4-yl)methyl)phenyl)-5-methyl-3-(trifluoromethyl)-4,5-dihydro-1H-pyrazol-5-yl)acetic acid] |
